Laboratory results taken from patent publication US20130023553A1, “PEGYLATED OPIOIDS WITH LOW POTENTIAL FOR ABUSE AND SIDE EFFECTS” (Nektar Therapeutics, priority 2010, published 2013).
Read-outs that look alike come from different tables or passages of the source.

Tests used:
[1] = 25 mg/kg intravenously, an hour following injection
Description: An hour following injection, the animals were sacrificed and plasma and the brain were collected and frozen immediately. Following tissue and plasma extractions, concentrations of the compounds in brain and plasma were measured using LC-MS/MS. The brain:plasma ratio was calculated as the ratio of measured concentrations in the brain and plasma.

[2] = Pharmacokinetics following oral (PO) dosing; assay type: in vivo, Sprague-Dawley rats; design: Cmax: unit: ng/mL; conditions: for Tmax: median value; for bioavailability: po, 5 mg/kg; for AUC(0-inf) / half-life: * n = 2; for half-life: read-out: T1/2(z)
From the text: (§1) There were 3 rats/group. All animals were food fasted overnight. […] The predose sample was collected from the JVC.
(§2) Following the last collection point, the animals were euthanized.

[3] = Pharmacokinetics following intravenous (IV) dosing; assay type: in vivo, Sprague-Dawley rats; design: Cmax: unit: ng/mL; conditions: hydroxycodone series, 1 mg/kg IV, Mean ± SD
From the text: as §1, §2

[4] = system: CD-1 male mice; experiment: Phenylquinone writhing analgesic assay; assay type: in vivo; conditions: Mus musculus; mPEGn-O-HydroxyCodone series
Description: The assay utilized CD-1 male mice (5-8 mice per group), each mouse being approximately 0.020-0.030 kg on the study day. Mice were treated according to standard protocols. Mice were given a single “pretreatment” dose of a compound lacking covalent attachment of a water-soluble, non-peptidic oligomer (i.e., non-PEG oligomer-modified parent molecule), a corresponding version comprising the compound covalently attached to a water-soluble, non-peptidic oligomer (i.e., the conjugate), or control solution (IV, SC, IP or orally) thirty minutes prior to the administration of the phenylquinone (PQ) solution. Each animal was given an IP injection of an irritant (phenylquinone, PQ) that induces “writhing” which may include: contractions of the abdomen, twisting and turning of the trunk, arching of the back, and the extension of the hindlimbs. Each animal was given an IP injection of PQ (1 mg/kg PQ, 0.1 mL/10 g bodyweight). After the injection, the animals were returned to their observation enclosure and their behavior was observed. Contractions were counted between 35 and 45 minutes after the ‘pretreatment”. The animals were used once. Each tested article was dosed at a range between 0.1 and 100 mg/kg (n=5-10 animals/dose).

[5] = system: mice; experiment: Oral dose giving maximal analgesia; assay type: in vivo
[6] = system: squirrel monkeys; experiment: Monkey self-administration model of addictive potential
From the text: Dose-related effects of the test articles were examined, using two or more doses of each drug in 3-4 subjects in a double alternation schedule in which each unit dose (or vehicle) was used in two consecutive sessions before a change in unit dose.
Addictive potential of opioid compounds and opioid conjugates of the invention may be assessed through the use of squirrel monkey models as known in the art.
Under the double alternation schedule, each unit dose (or vehicle) was available for intravenous self-administration for two consecutive sessions before the unit dose was changed. In this way, it was possible to establish the function relating unit dose of intravenous drug to (i) number of injections per session, and/or (ii) the percentage of total responses that occur on the lever leading to self-administration (injection-lever responding, % ILR). Unit doses of drugs ranged from 0.01 to 3.2 mg/kg/injection.

[7] = biological target: T1, human mu opioid receptor (Homo sapiens, UniProt P35372); experiment: cell-based; conditions: for Emax: read-out: % max effect, mu opioid receptor
T1 construct: expressed in transfected cells; host or cells: CHO cells
Description: Studies were conducted in CHO cells heterologously expressing the cloned human mu, kappa or delta opioid receptors. cAMP was measured using a cAMP HiRange homogenous time-resolved fluorescence assay (HTRF Assay), that is based on a competitive immunoassay principle (Cisbio, Cat.#62AM6PEC).
Briefly, suspensions of cells expressing either the mu, kappa or delta opioid receptors were prepared in buffer containing 0.5 mM isobutyl-methyl xanthine (IBMX). […] EC50 values were calculated for each compound from a sigmoidal dose-response plot of concentrations versus maximum response. To determine if the compounds behaved as full or partial agonists in the system, the maximal response at the highest tested concentrations of compounds were compared to that produced by a known full agonist.

[8] = biological target: T1, human mu opioid receptor; experiment: biochemical; assay type: binding
Description: Radioligand displacement was measured using scintillation proximity assays (SPA).
Briefly, serial dilutions of the test compounds were placed in a 96-well plate to which were added SPA beads, membrane and radioligand. The assay conditions for each opioid receptor subtype are described in Table 10 below. The plates were incubated for 8 hours-overnight at room temperature, spun at 1000 rpm to pellet the SPA beads, and radioactivity was measured using the TopCount® microplate Scintillation counter. Specific binding at each concentration of test compound was calculated by subtracting the non-specific binding measured in the presence of excess cold ligand. IC50 values were obtained by non-linear regression of specific binding versus concentration curves and Ki values were calculated using Kd values that were experimentally pre-determined for each lot of membrane preparations.

[9] = hydroxycodone series, 5.0 mg/kg oral, Mean ± SD
[10] = male, Sprague-Dawley, rat, plasma
[11] = male, Sprague-Dawley, rat, plasma, hydroxycodone series, 5.0 mg/kg oral, Mean ± SD
[12] = male, Sprague-Dawley, rat, plasma, hydroxycodone series, 5.0 mg/kg oral, Mean ± SD, read-out: Cmax
[13] = male, Sprague-Dawley, rat, plasma, hydroxycodone series, 5.0 mg/kg oral, read-out: Tmax (converted)

T1 sequence (P35372 whole entry): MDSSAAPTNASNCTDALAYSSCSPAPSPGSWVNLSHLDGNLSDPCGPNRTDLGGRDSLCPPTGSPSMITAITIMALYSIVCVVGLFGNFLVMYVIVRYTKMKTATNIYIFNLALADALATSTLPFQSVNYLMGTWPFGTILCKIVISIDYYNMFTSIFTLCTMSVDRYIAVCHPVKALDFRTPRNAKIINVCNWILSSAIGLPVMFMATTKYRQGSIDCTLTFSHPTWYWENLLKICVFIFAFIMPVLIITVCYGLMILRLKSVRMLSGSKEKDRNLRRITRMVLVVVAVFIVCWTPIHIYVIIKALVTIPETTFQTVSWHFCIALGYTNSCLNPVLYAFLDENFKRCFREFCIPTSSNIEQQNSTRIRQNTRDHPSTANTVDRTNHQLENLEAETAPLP

SMILES: COCCOCCOCCO[C@H]1CC[C@@]2(O)[C@H]3Cc4ccc(O)c5c4[C@@]2(CCN3CC2CCC2)[C@H]1O5 [6-O-mPEG3-Nalbuphine]
- Brain:Plasma Ratios [1]: 0.23

SMILES: COc1ccc2c3c1O[C@H]1C(=O)CC[C@@]4(O)[C@@H](C2)N(C)CC[C@]314 [Oxycodone, oxycodone, reference compound]
- AUCall [2, 9]: 4520 ± 1660 ng·min/mL
- Cmax [2, 9]: 25.5 ± 1.86 ng/mL
- MRTlast [2, 9]: 179 ± 17.4 min
- Tmax ([2]; hydroxycodone series, 5.0 mg/kg oral): 15.0 min
- AUCall [3]: 12800 ± 1090 ng·min/mL
- AUCinf [3]: 13000 ± 1070 ng·min/mL
- CL [3]: 77.1 ± 6.26 mL/min/kg
- Cmax [3]: 495 ± 56.0 ng/mL
- MRTlast [3]: 37.0 ± 1.28 min
- T1/2(z) [3]: 47.0 ± 3.99 min
- ED50 [4]: 0.619 mg/kg
- oral dose at which maximal analgesia was obtained [5]: 14 mg/kg
- subjects showing addictive behavior ([6]; 0.01 mg/kg/injection): 25%
- injection lever responses (% ILR) ([6]; 0.03 mg/kg/injection): 100%
- subjects showing addictive behavior ([6]; 0.03 mg/kg/injection): 100%
- injection lever responses (% ILR) ([6]; 0.1 mg/kg/injection): 100%

SMILES: COCCOC1CCC2(O)C3Cc4ccc(OC)c5c4C2(CCN3C)C1O5 (stereo not drawn) [α-6-mPEG1-O-hydroxycodone, α-6-mPEG1-O-oxycodone]
- Emax ([7]; maximal response at the highest tested concentration): 102%
- EC50 ([7]; read-out: EC50, mu opioid receptor): 3840 nM
- bioavailability [2, 10]: 2.1%
- AUC [2, 11]: 17.5 ng·h/mL
- MRT last [2, 11]: 66.8 min
- AUC(0-inf) [2, 11]: 19.2 ng·h/mL
- half-life [2, 11]: 57.7 min
- Cmax [2, 12]: 14.3 ± 6.43 ng/mL
- Tmax [2, 13]: 15 min
- Ki ([8]; CHO-K1 membranes, [3H]DAMGO 6 nM, read-out: Ki, Mu opioid receptor): 654 nM
- ED50 [4]: 6.06 mg/kg

SMILES: COCCOCCOCCOCCOC1CCC2(O)C3Cc4ccc(OC)c5c4C2(CCN3C)C1O5 (stereo not drawn) [α-6-mPEG4-O-hydroxycodone, α-6-mPEG4-O-oxycodone]
- EC50 [7]: 3720 nM
- Emax [7]: 109%
- bioavailability [2, 10]: 11%
- AUC [2, 11]: 106 ng·h/mL
- MRT last [2, 11]: 96.6 min
- AUC(0-inf) [2, 11]: 88 ng·h/mL
- half-life [2, 11]: 70.3 min
- Cmax [2, 12]: 55.8 ± 4.69 ng/mL
- Tmax [2, 13]: 15 min
- AUC [3, 10]: 192 ng·h/mL
- AUC(0-inf) [3, 10]: 193 ng·h/mL
- MRT last [3, 10]: 35.6 min
- clearance [3, 10]: 86.5 ± 6.36 mL/min/kg
- Cmax ([3]; male, Sprague-Dawley, rat, plasma, read-out: Cmax): 537 ± 31 ng/mL
- half-life ([3]; male, Sprague-Dawley, rat, plasma, read-out: T1/2(z)): 43.6 ± 3.27 min
- Vd ([3]; male, Sprague-Dawley, rat, plasma, read-out: Vss): 3.34 ± 0.113 L/kg
- Ki [8]: 893 nM
- ED50 [4]: 17.3 mg/kg
